# Where two headings read alike, the source gives them in different places.
# Legend:
# [1] = tested on: K. pneumoniae; experiment: MIC by broth microdilution (CLSI), K. pneumoniae; format: cell-based; conditions: Klebsiella pneumoniae, read-out: K. pneumoniae MIC
# Method: (§1) Minimal inhibitory concentrations (MIC) were determined by the broth microdilution method in accordance with the Clinical and Laboratory Standards Institute (CLSI) guidelines. In brief, organism suspensions were adjusted to a 0.5 McFarland standard to yield a final inoculum between 3×10^5 and 7×10^5 colony-forming units (CFU)/mL. Drug dilutions and inocula were made in sterile, cation adjusted Mueller-Hinton Broth (Beckton Dickinson). An inoculum volume of 100 μL was added to wells containing 100 μL of broth with 2-fold serial dilutions of drug. All inoculated microdilution trays were incubated in ambient air at 35° C. for 18-24 h. Following incubation, the lowest concentration of the drug that prevented visible growth (OD600 nm<0.05) was recorded as the MIC. Performance of the assay was monitored by the use of laboratory quality-control strains and levofloxacin, a compound with a defined MIC spectrum, in accordance with CLSI guidelines.
# [2] = tested on: E. coli; experiment: MIC by broth microdilution (CLSI), E. coli; format: cell-based; conditions: Escherichia coli, read-out: E. coli MIC
# Method: as §1
# [3] = broth microdilution, cation adjusted Mueller-Hinton Broth, 35° C., 18-24 h
Compound,"MIC [1, 3] [µg/mL]","MIC [2, 3] [µg/mL]",MIC [1] [µg/mL],MIC [2] [µg/mL]
"O=c1[nH]cnc(C(CCl)Cc2ccc(C#Cc3ccc(CN4CCOCC4)cc3)cc2)c1O (centres unmarked) [Compound 113, 6-(1-chloro-3-(4-((4-(morpholinomethyl)phenyl)ethynyl)phenyl)propan-2-yl)-5-hydroxypyrimidin-4(3H)-one]",8 to 32,8 to 32,–,–
"N#CCC(Cc1ccc(C#Cc2ccc(CN[C@H]3CCOC3)cc2)cc1)c1nc[nH]c(=O)c1O (stereo partly drawn) [Compound 107, 3-(5-hydroxy-6-oxo-1,6-dihydropyrimidin-4-yl)-4-(4-((4-((((S)-tetrahydrofuran-3-yl)amino)methyl)phenyl)ethynyl)phenyl)butanenitrile]",8 to 32,1 to 8,–,–
"O=c1[nH]cnc(C2(Cc3ccc(C#Cc4ccc(CN5CCOCC5)cc4)cc3)CC2)c1O [Compound 135, 5-hydroxy-6-(1-(4-((4-(morpholinomethyl)phenyl)ethynyl)benzyl)cyclopropyl) pyrimidin-4(3H)-one]",> 32,8 to 32,–,–
"O=C(NCC(F)F)C(Cc1ccc(C#Cc2ccc(C(F)(F)F)nc2)cc1)c1nc[nH]c(=O)c1O (centres unmarked) [Compound 26, N-(2,2-difluoroethyl)-2-(5-hydroxy-6-oxo-1,6-dihydropyrimidin-4-yl)-3-(4-((6-(trifluoromethyl)pyridin-3-yl)ethynyl)phenyl) propanamide]",> 32,> 32,–,–
"O=c1[nH]cnc(CCc2ccc(C#Cc3ccc(CNC4CCOC4)cc3)cn2)c1O (centres unmarked) [Compound 20, 5-hydroxy-6-(2-(5-((4-(((tetrahydrofuran-3-yl)amino)methyl)phenyl)ethynyl)pyridin-2-yl)ethyl)pyrimidin-4(3H)-one]",8 to 32,< 1,–,–
"O=C(OC1CCSC1)C(Cc1ccc(C#Cc2ccc(CN3CCOCC3)cc2)cc1)c1nc[nH]c(=O)c1O (centres unmarked) [Compound 115, tetrahydrothiophen-3-yl 2-(5-hydroxy-6-oxo-1,6-dihydropyrimidin-4-yl)-3-(4-((4-(morpholinomethyl)phenyl)ethynyl)phenyl)propanoate]",> 32,8 to 32,–,–
"C=CCNCC(Cc1ccc(C#CC#Cc2ccccc2N)cc1)c1nc[nH]c(=O)c1O (centres unmarked) [Compound 36, 6-(1-(allylamino)-3-(4-((2-aminophenyl)buta-1,3-diyn-1-yl)phenyl)propan-2-yl)-5-hydroxypyrimidin-4(3H)-one]",> 32,8 to 32,–,–
"O=c1[nH]cnc(CCn2ccc(C#Cc3ccc(CN4CCOCC4)cc3)cc2=O)c1O [Compound 23, 5-hydroxy-6-(2-(4-((4-(morpholinomethyl)phenyl)ethynyl)-2-oxopyridin-1(2H)-yl)ethyl)pyrimidin-4(3H)-one]",8 to 32,< 1,–,–
"Nc1ncc(C#Cc2ccc(CC(C(=O)NCC(F)F)c3nc[nH]c(=O)c3O)cc2)cn1 (centres unmarked) [Compound 24, 3-(4-((2-aminopyrimidin-5-yl)ethynyl)phenyl)-N-(2,2-difluoroethyl)-2-(5-hydroxy-6-oxo-1,6-dihydropyrimidin-4-yl)propanamide]",> 32,> 32,–,–
"Cn1cnc(C(CNC(=O)CF)Cc2ccc(C#Cc3ccc(CN4CCOCC4)cc3)cc2)c(O)c1=O (centres unmarked) [Compound 132, 2-fluoro-N-(2-(5-hydroxy-1-methyl-6-oxo-1,6-dihydropyrimidin-4-yl)-3-(4-((4-(morpholinomethyl)phenyl)ethynyl)phenyl)propyl)acetamide]",–,–,> 32,> 32
"O=C(NCCO)c1ccc(C#CC#Cc2ccc(CC(CO)c3nc[nH]c(=O)c3O)cc2)cc1 (centres unmarked) [Compound 32, 4-((4-(3-hydroxy-2-(5-hydroxy-6-oxo-1,6-dihydropyrimidin-4-yl)propyl)phenyl)buta-1,3-diyn-1-yl)-N-(2-hydroxyethyl)benzamide]",1 to 8,1 to 8,–,–
"O=c1[nH]cnc(CCc2ccc(C#Cc3ccc(CN4CCOCC4)cc3)cn2)c1O [Compound 19, 5-hydroxy-6-(2-(5-((4-(morpholinomethyl)phenyl)ethynyl)pyridin-2-yl)ethyl)pyrimidin-4(3H)-one]",1 to 8,< 1,–,–
"O=C1N(CCc2nc[nH]c(=O)c2O)Cc2cc(Br)cn21 [Compound 69, 6-bromo-2-(2-(5-hydroxy-6-oxo-1,6-dihydropyrimidin-4-yl)ethyl)-1,2-dihydro-3H-pyrrolo[1,2-c]imidazol-3-one]",> 32,> 32,–,–
"C=C(Cc1ccc(C#CC#Cc2ccc(C(=O)N3CCN(C)CC3)cc2)cc1)c1nc[nH]c(=O)c1O [Compound 33, 5-hydroxy-6-(3-(4-((4-(4-methylpiperazine-1-carbonyl)phenyl)buta-1,3-diyn-1-yl)phenyl)prop-1-en-2-yl)pyrimidin-4(3H)-one]",1 to 8,1 to 8,–,–
"C/C(=N\O)C(Cc1ccc(C#Cc2ccc(CN3CCOCC3)cc2)cc1)c1ncnc(O)c1O (centres unmarked) [Compound 111, (E)-3-(5,6-dihydroxypyrimidin-4-yl)-4-(4-((4-(morpholinomethyl)phenyl)ethynyl)phenyl)butan-2-one oxime]",> 32,8 to 32,–,–
"N#CCC(Cc1ccc(C#Cc2ccc(CN3CCOCC3)cc2)cc1)c1nc[nH]c(=O)c1O (centres unmarked) [Compound 106, 3-(5-hydroxy-6-oxo-1,6-dihydropyrimidin-4-yl)-4-(4-((4-(morpholinomethyl)phenyl)ethynyl)phenyl)butanenitrile]",1 to 8,1 to 8,–,–
"O=c1[nH]cnc(C2(Cn3ccc(C#Cc4ccc(CN5CCOCC5)cc4)cc3=O)CC2)c1O [Compound 43, 5-hydroxy-6-(1-((4-((4-(morpholinomethyl)phenyl)ethynyl)-2-oxopyridin-1(2H)-yl)methyl)cyclopropyl) pyrimidin-4(3H)-one]",> 32,> 32,–,–
"C=C(Cc1ccc(C#Cc2ccc(CN3CCOCC3)cc2)cc1)c1nc[nH]c(=O)c1O [Compound 105, 5-hydroxy-6-(3-(4-((4-(morpholinomethyl)phenyl)ethynyl)phenyl)prop-1-en-2-yl)pyrimidin-4(3H)-one]",1 to 8,1 to 8,–,–
"O=c1[nH]cnc(Cn2ccc3cc(C#Cc4ccc(CN5CCOCC5)cc4)cnc32)c1O [Compound 80, 5-hydroxy-6-((5-((4-(morpholinomethyl)phenyl)ethynyl)-1H-pyrrolo[2,3-b]pyridin-1-yl)methyl)pyrimidin-4(3H)-one]",> 32,8 to 32,–,–

# From US20220081421A1, “ANTIBACTERIAL COMPOUNDS” (Forge Therapeutics, Inc., priority 2018, published 2022)
